A short description of assay [1]: MC4R antagonists, dose response, counter-screen for LGR2 antagonist project, cell-based, plate reader, cherry pick (AID 743444).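 Also: transfected HEK 293 cells stimulated with alpha-MSH peptide; potency of inhibitors of the alpha-MSH evoked signal.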 It counts as functional.
Assay [2] concerns HEK293. Briefly: NOD2 signaling inhibitors in MDP-stimulated cells, cell-based, uHTS, luminescence (AID 2001). The conditions noted are these: Homo sapiens. The class given is functional.
Assay [3] addresses 1-phosphatidylinositol 4,5-bisphosphate phosphodiesterase beta-3 (Homo sapiens, UniProt Q01970). Kind of assay: Fluorescence-based biochemical high throughput dose response assay to identify inhibitors of phospholipase C isozymes (PLC-B3).
Assay [4] deals with HEK293. Briefly: NOD1 signaling inhibitors, primary screen, cell-based, luminescence, uHTS (AID 1578). The class given is functional. Conditions: Homo sapiens.
Assay [5] concerns the target 1-phosphatidylinositol 4,5-bisphosphate phosphodiesterase gamma-1 (Homo sapiens, UniProt P19174). Kind of assay: Counterscreen for inhibitors of phospholipase C isozymes (PLC-B3): Fluorescence-based biochemical high throughput dose response assay to identify inhibitors of phospholipase C isozymes (PLC-gamma1).
Assay [6] concerns HEK293. Briefly: cells. It counts as functional, cell-based. Conditions: Homo sapiens.
Assay [7] is described as follows: control 3'UTR Renilla luciferase suppression, dose response, counter-screen for Shn3 inhibitor project, cell-based, Clone20-Shn3RL, cherry-picked (AID 624133). The class given is functional.
Assay [8] can be described thus: A549 cell cytotoxicity, dose response, cytotoxicity control, plate reader, cherry-pick, antagonist series (AID 743412). It counts as functional, cell-based.
In assay [9] the test system is HEK293. Briefly: cells. The class given is functional, cell-based. The conditions noted are these: Homo sapiens. This is another data set of the same source.
Assay [10] in a line: HEK293 cell cytotoxicity, dose response, cytotoxicity control, plate reader, cherry-picked samples (AID 743446). The class given is functional, cell-based.
Assay [11] in a line: LGR2 antagonists, dose response, cell-based, HEK293, CRE-luciferase reporter, cherry pick, set 2 (AID 743343).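 Also: transfected cells were stimulated with diluted bursicon conditioned medium after compound addition.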 It counts as functional.
The subject of assay [12] is HEK293. Briefly: cells. It counts as functional, cell-based. The conditions noted are these: Homo sapiens. The source holds these as a separate data set.
The nature of assay [13]: HepG2 cell cytotoxicity, dose response, cytotoxicity control, plate reader, cherry-pick, antagonist series (AID 743416). It counts as functional, cell-based.
Assay [14] in a line: Shn3 3'UTR reporter inhibitors, dose response, cell-based, Clone20 osteoblasts, firefly luciferase, cherry-picked (AID 624132).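 Also: firefly luciferase luminescence from reporter carrying the Shn3 3'UTR in osteoblasts.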 It counts as functional.
The target in assay [15] is Neurotensin receptor type 1 (Homo sapiens, UniProt P30989). The class given is functional.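 Also: Image-based confirmatory dose-response assay measuring agonist activity at NTR1; NTR1-expressing U2OS osteosarcoma cells imaged for beta-arrestin GFP spot formation; agonist potency where compounds increase beta-arrestin recruitment.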
The target of assay [16] is Nucleotide-binding oligomerization domain-containing protein 2 (Homo sapiens, UniProt Q9HC29). Kind of assay: NOD2 signaling inhibitors, cell-based, luminescence, uHTS, HEK293 (AID 1566). It counts as functional.
Assay [17] can be described thus: HepG2 cell cytotoxicity, dose response, cytotoxicity control for Shn3 inhibitor project, CellTiter-Glo, cherry-picked (AID 624134). The class given is functional, cell-based.
In assay [18] the target is T1, Disintegrin and metalloproteinase domain-containing protein 17 (Homo sapiens, UniProt P78536). Kind of assay: exosite inhibitors of ADAM17, dose response, biochemical (AID 743260).
The nature of assay [19]: ADAM10 protease inhibitors, dose response, selectivity assay for ADAM17 exosite inhibitor project, biochemical, FRET peptide substrate, recombinant human ADAM10 (AID 743259).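 Also: ADAM10 enzyme cleaving a FRET peptide substrate.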
Assay [20] is described as follows: cytotoxicity toward NIH3T3 fibroblasts, dose response, counter-screen, cell-based, ATP luminescence, mouse fibroblasts (AID 2010).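 Also: cells exposed to compound for about 90 hours before reading.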 The class given is functional.
Assay [21] in a line: inhibitors of intracellular T. cruzi replication, confirmation, NIH3T3 host cells, beta-gal luminescence (AID 2044).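 Also: intracellular parasites grown in NIH/3T3 mouse fibroblasts as host cells; luminescent beta-galactosidase reporter signal from transgenic T. cruzi replicating inside host cells; inhibitors lower the luminescence signal.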 It counts as functional, cell-based.
Assay [22] is described as follows: A Cell-Based Confirmatory Screen for Compounds that Inhibit VEEV, TC-83 (3). It counts as functional.
Assay [23] addresses NAD-dependent protein deacylase sirtuin-5, mitochondrial (Homo sapiens, UniProt Q9NXA8). Kind of assay: SIRT5 desuccinylase inhibitors, dose response, biochemical, fluorescence imaging, cherry-pick, set 5 (AID 720591).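 Also: desuccinylation of succinyl peptide AMC substrate read as fluorescence after trypsin release; potency of inhibitors that lower fluorescence and may act on trypsin instead.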
Assay [24] is described as follows: Luminescence Cell-Based Dose Retest to Confirm Inhibitors of Cancer Stem Cells. [Related pubchem assays (depositor defined):AID2717, AID2721]. The class given is functional. Conditions: Homo sapiens.
Assay [25] has as its system Streptococcus. Kind of assay: Group A Streptococcus viability loss, dose response, counter-screen for streptokinase expression inhibitor project, luminescence, BacTiterGlo (AID 1915).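 Also: potency for reduction of bacterial viability or growth.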 The class given is functional, organism-based.
Assay [26] addresses T2, Streptokinase A (Streptococcus pyogenes serotype M1, UniProt P10520).
T2 sequence (P10520 whole entry): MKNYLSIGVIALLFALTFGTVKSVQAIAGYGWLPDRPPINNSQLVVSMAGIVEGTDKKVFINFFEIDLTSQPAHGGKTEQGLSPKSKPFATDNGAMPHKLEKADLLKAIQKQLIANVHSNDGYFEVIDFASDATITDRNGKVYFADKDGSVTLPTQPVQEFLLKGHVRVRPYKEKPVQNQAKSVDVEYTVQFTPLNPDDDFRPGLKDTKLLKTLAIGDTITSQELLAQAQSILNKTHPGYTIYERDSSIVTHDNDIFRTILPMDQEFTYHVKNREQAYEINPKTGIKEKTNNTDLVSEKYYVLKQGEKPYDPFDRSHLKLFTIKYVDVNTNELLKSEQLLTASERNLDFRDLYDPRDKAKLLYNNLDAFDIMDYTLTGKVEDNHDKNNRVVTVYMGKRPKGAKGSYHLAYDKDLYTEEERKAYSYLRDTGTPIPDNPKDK
Kind of assay: S. pyogenes streptokinase expression inhibitors, potency, dose response, plasminogen activation absorbance, OD405 (AID 1914).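 Also: secreted streptokinase activity via plasminogen activation per viability signal from cell pellet.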 The class given is functional, Streptococcus pyogenes M1 GAS.

Assay [27] addresses T1, Disintegrin and metalloproteinase domain-containing protein 17. Briefly: ADAM17 protease inhibitors, dose response, counter-screen for ADAM10 exosite inhibitor project, biochemical, quenched FRET substrate (AID 743253).
The subject of assay [28] is Streptococcus sp. 'group A'. Briefly: growth inhibition of control SK(-) GAS strain, dose response, counter-screen for streptokinase expression inhibitor project, luminescence, kanamycin, BacTiterGlo, confirmation (AID 1900). It counts as functional, organism-based.
Assay [29] deals with Nuclear receptor subfamily 0 group B member 1 (Homo sapiens, UniProt P51843). The class given is functional, cell-based.
The nature of assay [30]: cells. The class given is functional, cell-based.
Assay [31] addresses T3, Scavenger receptor class B member 1 (Mus musculus, UniProt Q61009). Kind of assay: inhibitors of SR-BI-mediated HDL uptake, dose response, cell-based, ldlA[mSR-BI] CHO, DiI fluorescence, dry powder, set 10 (AID 624029). It counts as functional.
In assay [32] the target is T3, Scavenger receptor class B member 1. Briefly: inhibitors of SR-BI dependent HDL uptake, dose response, ldlA[mSR-BI] CHO cells, fluorescence plate reader, dry powder, set 9 (AID 623880). It counts as functional, cell-based.
Assay [33] deals with HEK293. Briefly: HEK293T cell cytotoxicity, dose response, cytotoxicity control, ATP luminescence, cherry-pick samples (AID 687005).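 Also: cells exposed to compound for 48 hours.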 The conditions noted are these: Homo sapiens. It counts as functional, cell-based.
Assay [34] is described as follows: HEK293 Cytotoxicity Assay Measured in Cell-Based System Using Plate Reader - 7071-01_Inhibitor_Dose_CherryPick_Activity_Set2. It counts as functional.
Assay [35] concerns Cryptococcus neoformans. Briefly: PubChem AID 686997. The class given is functional, organism-based.
For assay [36], the system named is HeLa. Briefly: HeLa cell cytotoxicity, dose response, cytotoxicity control, ATP luminescence, cherry-pick samples (AID 687004). It counts as functional, cell-based. Conditions: Homo sapiens.

Calls of active or inactive are those of the source.

T1 sequence (P78536 whole entry, the tested form may be a part): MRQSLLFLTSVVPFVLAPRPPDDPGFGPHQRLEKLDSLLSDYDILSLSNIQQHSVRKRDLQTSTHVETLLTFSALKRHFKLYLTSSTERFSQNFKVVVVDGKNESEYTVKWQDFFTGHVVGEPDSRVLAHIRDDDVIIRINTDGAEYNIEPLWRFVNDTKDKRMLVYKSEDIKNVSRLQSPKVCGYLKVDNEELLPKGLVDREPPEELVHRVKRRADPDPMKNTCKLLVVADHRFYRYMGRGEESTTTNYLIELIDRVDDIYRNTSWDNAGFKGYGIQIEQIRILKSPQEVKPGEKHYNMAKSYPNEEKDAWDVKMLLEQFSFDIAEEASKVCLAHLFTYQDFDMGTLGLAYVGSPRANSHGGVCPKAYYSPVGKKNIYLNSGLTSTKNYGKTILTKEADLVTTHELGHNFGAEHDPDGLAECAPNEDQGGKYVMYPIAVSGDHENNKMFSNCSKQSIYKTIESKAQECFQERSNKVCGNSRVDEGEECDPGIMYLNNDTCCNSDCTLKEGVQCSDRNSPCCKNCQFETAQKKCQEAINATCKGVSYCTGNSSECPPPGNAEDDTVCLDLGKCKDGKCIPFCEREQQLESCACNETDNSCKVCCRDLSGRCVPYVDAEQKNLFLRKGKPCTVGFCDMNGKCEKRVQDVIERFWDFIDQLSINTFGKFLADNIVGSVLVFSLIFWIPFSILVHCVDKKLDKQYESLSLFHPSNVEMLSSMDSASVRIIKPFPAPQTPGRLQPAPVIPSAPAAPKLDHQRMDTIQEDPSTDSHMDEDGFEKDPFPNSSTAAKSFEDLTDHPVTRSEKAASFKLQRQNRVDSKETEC
T3 sequence (Q61009 whole entry): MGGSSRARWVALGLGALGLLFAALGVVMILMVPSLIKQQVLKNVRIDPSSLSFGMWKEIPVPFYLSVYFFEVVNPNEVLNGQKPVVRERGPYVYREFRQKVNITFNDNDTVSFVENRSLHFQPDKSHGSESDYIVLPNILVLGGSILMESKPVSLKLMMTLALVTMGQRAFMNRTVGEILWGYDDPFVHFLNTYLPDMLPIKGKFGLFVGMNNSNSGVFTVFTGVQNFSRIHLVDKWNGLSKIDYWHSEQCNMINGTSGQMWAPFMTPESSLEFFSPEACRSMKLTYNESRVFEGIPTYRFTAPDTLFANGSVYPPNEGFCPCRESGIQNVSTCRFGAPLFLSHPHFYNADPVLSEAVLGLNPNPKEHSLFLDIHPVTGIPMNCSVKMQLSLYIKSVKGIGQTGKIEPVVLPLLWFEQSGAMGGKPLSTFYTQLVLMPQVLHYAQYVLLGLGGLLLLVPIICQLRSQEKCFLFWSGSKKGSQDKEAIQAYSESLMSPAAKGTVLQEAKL
Chain of 1-phosphatidylinositol 4,5-bisphosphate phosphodiesterase beta-3 (Q01970 whole entry): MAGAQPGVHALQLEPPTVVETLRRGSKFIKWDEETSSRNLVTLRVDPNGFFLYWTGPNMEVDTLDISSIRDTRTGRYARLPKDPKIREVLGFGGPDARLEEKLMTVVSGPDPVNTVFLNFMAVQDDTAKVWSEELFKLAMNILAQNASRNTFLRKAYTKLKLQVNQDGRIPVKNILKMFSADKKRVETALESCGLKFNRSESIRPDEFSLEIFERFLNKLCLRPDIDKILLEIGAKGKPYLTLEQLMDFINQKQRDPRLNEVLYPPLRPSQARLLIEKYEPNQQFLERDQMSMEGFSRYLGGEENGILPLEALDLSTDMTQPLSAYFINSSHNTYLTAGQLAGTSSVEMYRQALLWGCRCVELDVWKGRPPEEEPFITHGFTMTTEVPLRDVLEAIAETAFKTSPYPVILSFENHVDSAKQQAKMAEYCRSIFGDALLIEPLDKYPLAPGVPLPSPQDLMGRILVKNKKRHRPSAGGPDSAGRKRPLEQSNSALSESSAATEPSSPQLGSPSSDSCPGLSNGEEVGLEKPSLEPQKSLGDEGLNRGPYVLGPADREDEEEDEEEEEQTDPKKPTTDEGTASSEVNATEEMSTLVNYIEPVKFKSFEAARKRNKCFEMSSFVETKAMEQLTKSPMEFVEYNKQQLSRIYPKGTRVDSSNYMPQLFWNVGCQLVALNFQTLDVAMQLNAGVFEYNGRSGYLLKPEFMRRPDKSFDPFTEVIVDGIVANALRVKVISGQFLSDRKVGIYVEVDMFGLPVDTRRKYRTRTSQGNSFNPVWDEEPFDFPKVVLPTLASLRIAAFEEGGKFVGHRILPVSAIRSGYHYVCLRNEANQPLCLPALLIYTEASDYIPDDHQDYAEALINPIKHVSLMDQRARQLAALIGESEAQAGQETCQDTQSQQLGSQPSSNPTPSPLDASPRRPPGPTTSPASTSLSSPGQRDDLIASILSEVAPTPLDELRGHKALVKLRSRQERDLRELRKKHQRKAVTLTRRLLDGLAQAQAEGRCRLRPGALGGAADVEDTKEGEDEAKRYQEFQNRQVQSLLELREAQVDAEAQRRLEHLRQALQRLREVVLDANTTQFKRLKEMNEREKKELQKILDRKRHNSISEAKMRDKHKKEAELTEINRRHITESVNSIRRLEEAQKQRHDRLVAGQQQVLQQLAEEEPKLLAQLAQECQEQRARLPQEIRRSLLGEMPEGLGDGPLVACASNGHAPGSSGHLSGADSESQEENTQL
Chain of Neurotensin receptor type 1 (P30989 whole entry, the tested form may be a part): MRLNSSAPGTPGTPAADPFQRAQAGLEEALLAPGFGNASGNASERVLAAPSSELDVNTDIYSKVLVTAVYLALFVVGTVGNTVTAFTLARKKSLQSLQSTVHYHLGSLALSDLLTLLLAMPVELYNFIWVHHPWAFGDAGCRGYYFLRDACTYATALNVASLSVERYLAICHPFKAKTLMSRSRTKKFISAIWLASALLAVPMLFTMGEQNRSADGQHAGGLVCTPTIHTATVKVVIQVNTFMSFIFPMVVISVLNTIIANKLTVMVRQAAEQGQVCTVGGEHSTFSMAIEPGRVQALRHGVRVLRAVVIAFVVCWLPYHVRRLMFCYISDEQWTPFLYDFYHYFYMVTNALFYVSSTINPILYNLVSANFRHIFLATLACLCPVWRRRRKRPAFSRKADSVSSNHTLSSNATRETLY
Chain of 1-phosphatidylinositol 4,5-bisphosphate phosphodiesterase gamma-1 (P19174 whole entry): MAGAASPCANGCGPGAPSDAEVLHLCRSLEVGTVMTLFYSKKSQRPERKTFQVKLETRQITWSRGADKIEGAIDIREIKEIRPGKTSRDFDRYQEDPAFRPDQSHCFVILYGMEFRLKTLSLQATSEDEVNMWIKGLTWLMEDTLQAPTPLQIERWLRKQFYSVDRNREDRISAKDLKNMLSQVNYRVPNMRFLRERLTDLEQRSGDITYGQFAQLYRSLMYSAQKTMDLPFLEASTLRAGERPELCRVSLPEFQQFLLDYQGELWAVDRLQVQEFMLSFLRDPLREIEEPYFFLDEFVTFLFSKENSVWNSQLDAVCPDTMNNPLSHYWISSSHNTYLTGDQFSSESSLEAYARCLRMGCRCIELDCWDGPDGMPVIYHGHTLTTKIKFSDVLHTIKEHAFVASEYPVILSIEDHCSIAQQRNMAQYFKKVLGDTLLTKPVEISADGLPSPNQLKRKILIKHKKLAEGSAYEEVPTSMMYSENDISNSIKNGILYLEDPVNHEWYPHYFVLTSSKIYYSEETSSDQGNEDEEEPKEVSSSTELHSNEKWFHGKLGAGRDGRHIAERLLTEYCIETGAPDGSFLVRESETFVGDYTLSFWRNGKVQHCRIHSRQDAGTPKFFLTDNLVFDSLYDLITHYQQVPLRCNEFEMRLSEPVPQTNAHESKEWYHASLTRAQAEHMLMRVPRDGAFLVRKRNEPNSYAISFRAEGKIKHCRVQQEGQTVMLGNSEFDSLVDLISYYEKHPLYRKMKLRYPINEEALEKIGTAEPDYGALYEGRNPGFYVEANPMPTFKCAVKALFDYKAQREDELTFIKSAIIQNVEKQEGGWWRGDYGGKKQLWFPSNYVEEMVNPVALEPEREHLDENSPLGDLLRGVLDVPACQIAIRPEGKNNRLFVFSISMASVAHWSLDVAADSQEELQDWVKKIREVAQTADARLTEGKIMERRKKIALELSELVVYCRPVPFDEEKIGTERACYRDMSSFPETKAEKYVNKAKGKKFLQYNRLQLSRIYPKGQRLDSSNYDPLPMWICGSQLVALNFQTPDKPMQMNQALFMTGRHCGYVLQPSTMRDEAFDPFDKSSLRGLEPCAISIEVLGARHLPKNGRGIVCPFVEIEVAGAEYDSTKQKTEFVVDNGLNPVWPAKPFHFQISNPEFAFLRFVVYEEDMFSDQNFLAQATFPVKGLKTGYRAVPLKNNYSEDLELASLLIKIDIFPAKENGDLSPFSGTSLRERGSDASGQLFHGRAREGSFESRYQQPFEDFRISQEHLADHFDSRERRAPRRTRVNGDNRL
Chain of Nuclear receptor subfamily 0 group B member 1 (P51843 whole entry): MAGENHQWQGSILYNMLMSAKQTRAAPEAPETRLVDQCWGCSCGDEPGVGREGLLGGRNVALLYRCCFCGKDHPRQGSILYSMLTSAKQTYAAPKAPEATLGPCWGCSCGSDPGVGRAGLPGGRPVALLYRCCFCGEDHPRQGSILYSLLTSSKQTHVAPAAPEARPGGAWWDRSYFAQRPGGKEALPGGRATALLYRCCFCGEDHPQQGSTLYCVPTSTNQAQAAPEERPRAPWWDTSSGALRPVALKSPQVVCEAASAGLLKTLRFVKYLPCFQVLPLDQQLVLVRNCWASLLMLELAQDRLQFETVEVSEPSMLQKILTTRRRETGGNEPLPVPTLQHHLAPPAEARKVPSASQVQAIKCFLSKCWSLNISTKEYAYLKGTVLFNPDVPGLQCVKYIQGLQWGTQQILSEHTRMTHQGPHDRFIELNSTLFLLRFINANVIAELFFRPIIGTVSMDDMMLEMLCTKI
Chain of NAD-dependent protein deacylase sirtuin-5, mitochondrial (Q9NXA8 whole entry): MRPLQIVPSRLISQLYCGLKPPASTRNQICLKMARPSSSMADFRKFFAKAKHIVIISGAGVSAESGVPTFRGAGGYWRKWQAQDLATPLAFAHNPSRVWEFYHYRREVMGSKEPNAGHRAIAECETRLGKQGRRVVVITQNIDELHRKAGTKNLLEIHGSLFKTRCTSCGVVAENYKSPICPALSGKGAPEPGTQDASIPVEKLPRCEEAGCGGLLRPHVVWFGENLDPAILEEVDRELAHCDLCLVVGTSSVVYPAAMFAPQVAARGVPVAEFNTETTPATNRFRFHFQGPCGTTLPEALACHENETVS

`CN(C(=O)COc1ccccc1C(=O)NCCOc1ccccc1)c1ccccc1`: the AC50 is 11.2 µM (active) in assay [1]; 4.23 µM (active) in assay [7]; 20.8 µM (active) in [8]; 15.9 µM (active) in [10]; 12.8 µM (active) in assay [11]; 32.7 µM (active) in assay [13]. The AC50 in [14] is 1.57 µM (active); in assay [17] it was 51.9 µM (active). In addition, the 50% inhibitory concentration (IC50) in assay [2] is 4.32 µM (active); in assay [3], > 122 µM (inactive); in [5], > 122 µM (inactive); in assay [6], 3.42 µM (active); in assay [9], 11.2 µM (active); in [12], 3.82 µM (active). In addition, the EC50 in assay [4] was 5.76 µM (active); in [15], 17.9 µM (active); in assay [16], 7.78 µM (active).
Take `COC(=O)C1=C(c2cc3ccccc3s2)C[C@@H]2CC[C@H]1N2C(=O)NCc1ccc(C(F)(F)F)cc1`: the IC50 in assay [18] is > 69.5 µM (inactive); in [19], > 7.72 µM (active). Besides, the EC50 in assay [20] was 8.21 µM (active); in assay [21], 3.12 µM (active).
Regarding `O=c1c2cc([N+](=O)[O-])ccc2nc(CN2CCOCC2)n1-c1ccccc1F`, the IC50 in [22] was 9.6 µM (active).
Take `CCn1ccnc1CN(C)C(=O)CC1C(=O)NCCN1Cc1c(F)cccc1Cl` (stereo unspecified): the AC50 in assay [23] is > 30 µM (inactive).
In the case of `Oc1ccc(Cl)cc1-c1cc(-c2cccc(Br)c2)[nH]n1`, the AC50 in assay [24] was 5.22 µM (active). Besides, the EC50 in [25] is 6.65 µM (active); in assay [26], > 150 µM (not active); in [28] it was 5.6 µM (active). Moreover, the IC50 in assay [27] is > 69.5 µM (inactive).
Consider `CC(=O)Nc1ccc(-c2ccnc3c2CC(C(=O)NCc2ccco2)O3)cc1` (stereo unspecified), for which the IC50 in assay [29] and in assay [30] was > 67.5 µM (inactive) in each case.
Turning to `C[C@@H]1CN([C@H](C)CO)C(=O)c2cc(NC(=O)C3CCOCC3)ccc2O[C@H]1CN(C)S(=O)(=O)c1ccc(Cl)cc1`, the results for the AC50 in assay [31] and in assay [32] were 34.8 µM (active) and 34.2 µM (active), respectively.
As for `COC(=O)C1=C(C)N(Cc2ccc(Cl)cc2)C(=S)NC1c1cccc(OC)c1` (stereo unspecified), the AC50 in [33] was 11.4 µM (active); in assay [34], 11.4 µM (active); in assay [35], 57.5 µM (active); in [36], > 52 µM (inactive).

These data come from ChEMBL document CHEMBL1201862, “PubChem BioAssay data set” (2004).
